What all share (assay type): cell-based, human
Test [1] concerns FLT3-ITD mutation-positive leukemia cell line MV-4-11. Put plainly: Proliferation inhibitory activity against MV-4-11 by combined use of anti-cancer agents (CellTiter-Glo, combination index). How it is done:
<Evaluation of Proliferation Inhibitory Activity Against FLT3-ITD Mutation-Positive Leukemia Cell Line MV-4-11 by Combined Use of Anti-Cancer Agent>
MV-4-11 cells which are a human FLT3-ITD mutation-positive leukemia cell line were subcultured in an RPMI-1640 medium containing 10% serum. During this test, all cell cultures were performed in a CO2 incubator (setting: 37° C., 5% CO2, water vapor saturated). Cells were diluted with a medium containing 10% serum to 1,000 cells/well/20 μL and seeded on a 384-well plate.
After being serially diluted with DMSO and further being diluted with a medium containing 10% serum, each of the test substance solutions having a concentration 10 times the final treatment concentration was prepared.
(§1) In addition, a group (a positive control group) in which only a solvent containing no drugs was added to a well in which cells were plated and a group (a negative control group) in which only a solvent containing no drugs was added to a well in which only a medium was added were prepared.
After the addition of the drug, cells were cultured for 3 days, and the cell viability was evaluated using CellTiter-Glo (registered trade mark) Reagent (Cat. #G7570, manufactured by Promega Corporation) using the amount of ATP in the cells as an indicator.
(§2) The suppression rate was determined by assuming that the amount of luminescence signal in the negative control group corresponded to the suppression of cell viability by 100% and the amount of luminescence signal in the positive control group corresponded to the suppression of cell viability by 0%. The concentration (IC50 value) at which cell viability is suppressed by 50% was calculated using XLFit (registered trade mark) software Ver. 3 (manufactured by ITOCHU Techno-Solutions Corporation). The suppression effect (Fa, the fraction affected by the dose) was calculated by dividing the suppression rate by 100.
(§3) The combination effect of the present invention was determined by calculating the combination index (CI), which is a quantitative indicator of the combination effect, using CalcuSyn (BIOSOFT) based on the value of the suppression effect.
(§4) In the table, “Fa around 0.5” and “Fa around 0.75” mean the effect of suppressing the cell viability by about 50% and about 75%, respectively, in a case where drugs are used in combination.

Test [2] has as its system Cell derived from FLT3-ITD mutation-positive leukemia patient. Put plainly: Proliferation inhibitory activity against cells derived from a leukemia patient by combined use (CellTiter-Glo, combination index), FLT3-ITD positive. How it is done: (§5) <Evaluation of Proliferation Inhibitory Activity Against Cell Derived from Leukemia Patient by Combined Use of Existing Anti-Cancer Agent>
(§6) Monocytes isolated from bone marrow or peripheral blood of two leukemia patients (one patient is FLT3-ITD mutation-positive, and the other patient is FLT3-ITD mutation-negative) were used and cultured in MethoCult™ H4534 Classic Without EPO (Cat. #H4534, manufacture by […] technologies). During this test, all cell cultures were performed in a CO2 incubator (setting: 37° C., 5% CO2, water vapor saturated). Cells were diluted with medium to 5,000 cells/well/90 μL and seeded on a 96-well plate.
(§7) After serially diluting with DMSO and further diluting with a medium, each of the test substance solutions having a concentration 10 times the final treatment concentration was prepared.
as §1
(§8) After the addition of the drug, cells were cultured for 7 or 8 days, and the cell viability was evaluated using CellTiter-Glo (registered trade mark) Reagent (Cat. #G7570, manufactured by Promega Corporation) using the amount of ATP in the cells as an indicator.
as §2, §3, §4
On the technique in general: Cellular ATP, detected with luciferase, serves as a proxy for viable cell number.

Test [3] has as its system Cell derived from FLT3-ITD mutation-negative leukemia patient. Put plainly: Proliferation inhibitory activity against cells derived from a leukemia patient by combined use (CellTiter-Glo, combination index), FLT3-ITD negative. How it is done:
as §5, §6, §7, §1, §8, §2, §3, §4

The mark [4] stands for this setting: in combination with Compound A1, MV-4-11.
[5] abbreviates: in combination with Compound A1.
Where [6] appears, read: in combination with Compound A1, concentration fixing ratio A1:decitabine 1:10, A1:venetoclax 1:1, 7 or 8 days.

Results on 1 substance are retold here after US20210386768A1, “COMBINATION MEDICINE” (FUJIFILM Corporation, priority 2019, published 2021).

Consider Venetoclax, for which the “combination index (CI), Fa around 0.5” value in test [1] (in combination with Compound A1 (succinate salt), concentration fixing ratio A1:decitabine 1:3,000, A1:venetoclax 1:120, MV-4-11, 3 days, average of 4 experiments, about 50% suppression of cell viability) was “++ (0.7 or more and less than 0.85, a moderate synergistic effect)”; in test [2] (setting [6]), “+++ (Less than 0.7, a strong synergistic effect)”; in test [3] (setting [6]), “+++ (Less than 0.7, a strong synergistic effect)”. For the same substance, the “combination index (CI), Fa around 0.75” value is “+++ (Less than 0.7, a strong synergistic effect)” in test [1] (in combination with Compound A1 (succinate salt), concentration fixing ratio A1:decitabine 1:3,000, A1:venetoclax 1:120, MV-4-11, 3 days, average of 4 experiments, about 75% suppression of cell viability); “+++ (Less than 0.7, a strong synergistic effect)” in test [2] (setting [6]); “+++ (Less than 0.7, a strong synergistic effect)” in test [3] (setting [6]). The “combination effect in words, suppression effect around 0.5” value in test [1] (setting [4]) is given as “moderate synergistic effect”; in test [2] (setting [5]), “strong synergistic effect”; in test [3] (setting [5]) it was “strong synergistic effect”. Moreover, the “combination effect in words, suppression effect around 0.75” value in test [1] (setting [4]), in test [2] (setting [5]) and in test [3] (setting [5]) was “strong synergistic effect” in each case.
